From ChEMBL document CHEMBL4007390, “Design, synthesis and biological evaluation of indolin-2-one-based derivatives as potent, selective and efficacious inhibitors of FMS-like tyrosine kinase3 (FLT3)” (Eur J Med Chem, 2017)

Key:
[1] = target: Fibroblast growth factor receptor 1 (Homo sapiens) (UniProt P11362); experiment: Inhibition of human FGFR1 at 0.1 uM relative to control
[2] = target: Tyrosine-protein kinase ZAP-70 (Homo sapiens) (UniProt P43403); experiment: Inhibition of human ZAP70 at 0.1 uM relative to control
786-0 = experiment: Antiproliferative activity against human 786-O cells harboring VHL after 72 hrs by MTS assay; type: functional, cell-based; conditions: 786-0, 72 h
[3] = target: Platelet-derived growth factor receptor alpha (Homo sapiens, UniProt P16234); experiment: Inhibition of human PDGFRalpha
MV4-11 [4] = experiment: Antiproliferative activity against human MV4-11 cells harboring FLT3 ITD mutant after 72 hrs by MTS assay; type: functional, cell-based; conditions: MV4-11, 72 h
Mus musculus = experiment: Toxicity in Harlan nude mouse xenografted with human MV4-11 cells assessed as mouse death at 5 to 80 mg/kg, ig bid for 20 days; type: organism-based; conditions: in vivo, po, 480 h
MDA-MB-231 = experiment: Antiproliferative activity against human MDA-MB-231 cells harboring K-Ras/B-Raf after 72 hrs by MTS assay; type: functional, cell-based; conditions: MDA-MB-231, 72 h
[5] = target: Mitogen-activated protein kinase 1 (Homo sapiens) (UniProt P28482); experiment: Inhibition of human MAPK1 at 0.1 uM relative to control
[6] = Oral bioavailability in Balb/c nude mouse at 40 mg/kg via gavage by LC-MS/MS analysis; type: ADME, organism-based; conditions: in vivo
Kasumi 1 = experiment: Antiproliferative activity against human Kasumi-1 cells harboring […] after 72 hrs by MTS assay; type: functional, cell-based; conditions: Kasumi 1, 72 h
Jurkat = experiment: Antiproliferative activity against FLT3 negative human Jurkat cells after 72 hrs by MTS assay; type: functional, cell-based
Cytochrome P450 2C19 = Cytochrome P450 2C19 (Homo sapiens, UniProt P33261); experiment: Inhibition of microsomal CYP2C19 (unknown origin) using S-mephenytoin as substrate preincubated for 5 mins followed by NADPH addition by LC-MS/MS analysis; type: ADME
[7] = AUC (0 to infinity) in Balb/c nude mouse at 40 mg/kg, po via gavage by LC-MS/MS analysis; type: ADME, organism-based; parameters: dose 40 mg/kg, time infinity, route oral; conditions: in vivo
MV4-11 [8] = experiment: Antitumor activity against human MV4-11 cells xenografted in Harlan nude mouse assessed as tumor growth inhibition at 5 mg/kg, ig bid for 20 days relative to control; type: functional; conditions: MV4-11, po, 480 h, read-out: TGI
[9] = target: Receptor-type tyrosine-protein kinase FLT3 (Homo sapiens, UniProt P36888, D835Y); experiment: Inhibition of human FLT3 D835Y mutant
[10] = target: Receptor-type tyrosine-protein kinase FLT3 (Homo sapiens) (UniProt P36888); conditions: 0.1 uM
Description: Inhibition of human FLT3 at 0.1 uM relative to control

Cytochrome P450 2C8 = Cytochrome P450 2C8 (Homo sapiens, UniProt P10632); experiment: Inhibition of microsomal CYP2C8 (unknown origin) using amodiaquine as substrate preincubated for 5 mins followed by NADPH addition by LC-MS/MS analysis; type: ADME
MV4-11 [11] = experiment: Antitumor activity against human MV4-11 cells xenografted in Harlan nude mouse assessed as tumor growth inhibition at 80 mg/kg, ig bid for 20 days relative to control; type: functional; conditions: MV4-11, po, 480 h, read-out: TGI
[12] = target: Cyclin-dependent kinase 2 (Homo sapiens) (UniProt P24941); experiment: Inhibition of human CDK2 at 0.1 uM relative to control
NCI-H2228 = experiment: Antiproliferative activity against human NCI-H2228 cells harboring ALK after 72 hrs by MTS assay; type: functional, cell-based; conditions: NCI-H2228, 72 h
[13] = target: Serine/threonine-protein kinase PAK 4 (Homo sapiens) (UniProt O96013); experiment: Inhibition of human PAK4 at 0.1 uM relative to control
[14] = test system: Receptor-type tyrosine-protein kinase FLT3 (Homo sapiens), P36888 [D835Y]; conditions: 0.1 uM
[15] = target: Aurora kinase A (Homo sapiens) (UniProt O14965); experiment: Inhibition of human Aurora A at 0.1 uM relative to control
[16] = Cmax in Balb/c nude mouse at 40 mg/kg, po via gavage by LC-MS/MS analysis; type: ADME, organism-based; parameters: dose 40 mg/kg, route oral; conditions: in vivo
Cytochrome P450 2D6 = Cytochrome P450 2D6 (Homo sapiens, UniProt P10635); experiment: Inhibition of microsomal CYP2D6 (unknown origin) using dextromethorphan as substrate preincubated for 5 mins followed by NADPH addition by LC-MS/MS analysis; type: ADME
MV4-11 [17] = experiment: Antitumor activity against human MV4-11 cells xenografted in Harlan nude mouse assessed as tumor growth inhibition at 10 mg/kg, ig bid for 20 days relative to control; type: functional; conditions: MV4-11, po, 480 h, read-out: TGI
[18] = target: Vascular endothelial growth factor receptor 2 (Homo sapiens) (UniProt P35968); experiment: Inhibition of human VEGFR2 at 0.1 uM relative to control
MOLM-13 = experiment: Antiproliferative activity against human MOLM13 cells harboring FLT3 ITD mutant after 72 hrs by MTS assay; conditions: MOLM-13, 72 h
[19] = test system: Platelet-derived growth factor receptor alpha (Homo sapiens), P16234 [D842V]; experiment: Inhibition of human PDGFRalpha D842V mutant at 0.1 uM relative to control
[20] = target: Insulin receptor (Homo sapiens) (UniProt P06213); experiment: Inhibition of human INSR at 0.1 uM relative to control
Cytochrome P450 2C9 = Cytochrome P450 2C9 (Homo sapiens, UniProt P11712); experiment: Inhibition of microsomal CYP2C9 (unknown origin) using diclofenac as substrate preincubated for 5 mins followed by NADPH addition by LC-MS/MS analysis; type: ADME
[21] = target: AMP-activated protein kinase (AMPK) alpha-1/beta-1/gamma-1 (Homo sapiens) (UniProt P54619+Q9Y478+Q13131); experiment: Inhibition of human AMPK alpha1/beta1/gamma1 at 0.1 uM relative to control; type: protein-complex assay
MV4-11 [22] = experiment: Antitumor activity against human MV4-11 cells xenografted in Harlan nude mouse assessed as tumor growth inhibition at 40 mg/kg, ig bid for 20 days relative to control; type: functional; conditions: MV4-11, po, 480 h, read-out: TGI
[23] = target: Vascular endothelial growth factor receptor 3 (Homo sapiens) (UniProt P35916); experiment: Inhibition of human VEGFR3 at 0.1 uM relative to control
Chain of Vascular endothelial growth factor receptor 3 (Homo sapiens) (P35916 whole entry): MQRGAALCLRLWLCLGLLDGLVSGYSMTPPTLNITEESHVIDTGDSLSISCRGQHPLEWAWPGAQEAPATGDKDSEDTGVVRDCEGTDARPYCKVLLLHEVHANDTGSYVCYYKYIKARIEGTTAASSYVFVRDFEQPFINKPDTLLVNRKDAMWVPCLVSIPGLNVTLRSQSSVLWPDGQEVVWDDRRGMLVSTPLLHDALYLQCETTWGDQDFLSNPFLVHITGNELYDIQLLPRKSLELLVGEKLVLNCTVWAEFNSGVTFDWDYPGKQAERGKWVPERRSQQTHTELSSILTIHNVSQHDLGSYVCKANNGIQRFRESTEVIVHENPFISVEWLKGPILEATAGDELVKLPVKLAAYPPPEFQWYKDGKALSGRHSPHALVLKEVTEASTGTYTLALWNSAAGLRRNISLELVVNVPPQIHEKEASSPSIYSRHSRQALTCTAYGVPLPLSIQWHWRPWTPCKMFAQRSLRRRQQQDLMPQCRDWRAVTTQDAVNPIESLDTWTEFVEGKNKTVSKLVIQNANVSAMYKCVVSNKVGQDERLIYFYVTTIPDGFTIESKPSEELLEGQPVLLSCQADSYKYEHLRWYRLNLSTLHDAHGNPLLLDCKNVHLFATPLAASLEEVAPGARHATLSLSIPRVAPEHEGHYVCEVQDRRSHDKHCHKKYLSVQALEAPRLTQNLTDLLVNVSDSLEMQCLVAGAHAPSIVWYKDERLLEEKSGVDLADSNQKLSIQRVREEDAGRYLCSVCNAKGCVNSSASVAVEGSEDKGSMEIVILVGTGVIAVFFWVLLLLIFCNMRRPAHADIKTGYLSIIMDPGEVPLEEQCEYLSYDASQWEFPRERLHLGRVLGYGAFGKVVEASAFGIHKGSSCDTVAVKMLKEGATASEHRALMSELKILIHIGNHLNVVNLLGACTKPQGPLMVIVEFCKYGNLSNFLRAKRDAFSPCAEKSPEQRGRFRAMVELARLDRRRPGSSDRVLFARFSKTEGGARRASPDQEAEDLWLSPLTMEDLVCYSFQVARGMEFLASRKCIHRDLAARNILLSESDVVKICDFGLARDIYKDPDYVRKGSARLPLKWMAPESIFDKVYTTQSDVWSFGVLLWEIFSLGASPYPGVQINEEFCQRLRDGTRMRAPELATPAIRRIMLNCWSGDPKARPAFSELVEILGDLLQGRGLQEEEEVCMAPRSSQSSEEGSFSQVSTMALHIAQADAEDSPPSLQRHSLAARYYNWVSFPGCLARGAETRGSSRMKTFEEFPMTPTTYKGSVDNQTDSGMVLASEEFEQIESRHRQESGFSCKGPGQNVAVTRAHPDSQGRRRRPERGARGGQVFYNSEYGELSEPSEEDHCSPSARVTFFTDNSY

Chain of Mitogen-activated protein kinase 1 (Homo sapiens) (P28482 whole entry): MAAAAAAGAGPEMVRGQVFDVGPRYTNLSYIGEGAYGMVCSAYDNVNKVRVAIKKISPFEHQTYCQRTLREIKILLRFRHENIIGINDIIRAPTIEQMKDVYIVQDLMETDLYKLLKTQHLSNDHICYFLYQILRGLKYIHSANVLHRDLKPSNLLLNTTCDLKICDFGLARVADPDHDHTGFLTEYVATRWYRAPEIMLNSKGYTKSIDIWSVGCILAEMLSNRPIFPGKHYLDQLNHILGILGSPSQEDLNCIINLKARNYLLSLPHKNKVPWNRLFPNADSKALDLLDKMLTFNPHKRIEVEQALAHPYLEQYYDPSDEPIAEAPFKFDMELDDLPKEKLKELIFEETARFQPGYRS
Chain of Fibroblast growth factor receptor 1 (Homo sapiens) (P11362 22-822 limits assumed): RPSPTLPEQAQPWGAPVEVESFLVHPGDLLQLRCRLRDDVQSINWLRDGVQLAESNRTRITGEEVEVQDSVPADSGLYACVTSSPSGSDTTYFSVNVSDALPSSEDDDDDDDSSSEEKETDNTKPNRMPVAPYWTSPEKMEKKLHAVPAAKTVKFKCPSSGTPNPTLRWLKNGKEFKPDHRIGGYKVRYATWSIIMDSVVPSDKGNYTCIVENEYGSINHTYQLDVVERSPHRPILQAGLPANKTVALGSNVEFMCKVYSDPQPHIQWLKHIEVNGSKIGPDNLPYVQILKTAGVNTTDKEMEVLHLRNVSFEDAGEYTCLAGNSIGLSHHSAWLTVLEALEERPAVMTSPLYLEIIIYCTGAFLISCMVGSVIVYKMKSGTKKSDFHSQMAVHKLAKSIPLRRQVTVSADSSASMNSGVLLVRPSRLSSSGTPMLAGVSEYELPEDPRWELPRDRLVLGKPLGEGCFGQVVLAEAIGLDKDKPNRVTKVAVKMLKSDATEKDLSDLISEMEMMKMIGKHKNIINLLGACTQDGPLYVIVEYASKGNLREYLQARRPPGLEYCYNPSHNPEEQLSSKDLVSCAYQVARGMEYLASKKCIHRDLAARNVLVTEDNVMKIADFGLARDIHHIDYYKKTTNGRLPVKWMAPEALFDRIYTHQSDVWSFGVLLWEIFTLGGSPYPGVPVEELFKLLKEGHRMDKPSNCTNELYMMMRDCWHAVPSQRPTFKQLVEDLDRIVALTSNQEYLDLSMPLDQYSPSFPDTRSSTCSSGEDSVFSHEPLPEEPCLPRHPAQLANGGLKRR
Chain of Serine/threonine-protein kinase PAK 4 (Homo sapiens) (O96013 whole entry, looked up): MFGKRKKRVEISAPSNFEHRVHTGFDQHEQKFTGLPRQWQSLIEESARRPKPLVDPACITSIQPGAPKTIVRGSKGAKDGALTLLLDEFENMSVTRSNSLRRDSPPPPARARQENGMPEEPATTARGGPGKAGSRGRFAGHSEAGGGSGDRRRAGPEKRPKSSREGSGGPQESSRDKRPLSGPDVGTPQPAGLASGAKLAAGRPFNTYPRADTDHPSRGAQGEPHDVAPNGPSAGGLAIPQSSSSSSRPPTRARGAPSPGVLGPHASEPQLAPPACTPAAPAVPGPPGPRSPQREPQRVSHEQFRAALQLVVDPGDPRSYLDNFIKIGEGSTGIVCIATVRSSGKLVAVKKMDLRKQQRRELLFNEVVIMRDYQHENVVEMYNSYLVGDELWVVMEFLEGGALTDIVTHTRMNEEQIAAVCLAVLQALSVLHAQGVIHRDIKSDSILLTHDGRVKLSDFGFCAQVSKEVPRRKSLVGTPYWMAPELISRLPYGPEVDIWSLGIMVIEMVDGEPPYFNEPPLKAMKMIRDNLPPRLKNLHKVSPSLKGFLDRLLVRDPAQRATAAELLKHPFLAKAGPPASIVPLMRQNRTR
Chain of Cytochrome P450 2D6 (P10635 whole entry): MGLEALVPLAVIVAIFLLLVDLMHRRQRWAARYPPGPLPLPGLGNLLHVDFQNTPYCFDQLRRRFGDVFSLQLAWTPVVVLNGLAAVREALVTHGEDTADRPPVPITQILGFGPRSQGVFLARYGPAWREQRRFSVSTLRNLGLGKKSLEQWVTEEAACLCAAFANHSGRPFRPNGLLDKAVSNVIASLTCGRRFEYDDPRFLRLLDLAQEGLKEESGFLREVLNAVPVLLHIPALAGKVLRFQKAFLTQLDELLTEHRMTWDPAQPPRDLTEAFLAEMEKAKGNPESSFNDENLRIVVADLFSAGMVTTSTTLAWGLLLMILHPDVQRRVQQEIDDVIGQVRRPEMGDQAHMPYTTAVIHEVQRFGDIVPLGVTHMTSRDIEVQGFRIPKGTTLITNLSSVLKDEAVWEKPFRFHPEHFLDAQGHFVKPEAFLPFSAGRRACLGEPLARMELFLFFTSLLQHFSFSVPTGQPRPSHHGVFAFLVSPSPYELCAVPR
Chain of Platelet-derived growth factor receptor alpha (Homo sapiens), P16234 [D842V] (P16234 whole entry D842V): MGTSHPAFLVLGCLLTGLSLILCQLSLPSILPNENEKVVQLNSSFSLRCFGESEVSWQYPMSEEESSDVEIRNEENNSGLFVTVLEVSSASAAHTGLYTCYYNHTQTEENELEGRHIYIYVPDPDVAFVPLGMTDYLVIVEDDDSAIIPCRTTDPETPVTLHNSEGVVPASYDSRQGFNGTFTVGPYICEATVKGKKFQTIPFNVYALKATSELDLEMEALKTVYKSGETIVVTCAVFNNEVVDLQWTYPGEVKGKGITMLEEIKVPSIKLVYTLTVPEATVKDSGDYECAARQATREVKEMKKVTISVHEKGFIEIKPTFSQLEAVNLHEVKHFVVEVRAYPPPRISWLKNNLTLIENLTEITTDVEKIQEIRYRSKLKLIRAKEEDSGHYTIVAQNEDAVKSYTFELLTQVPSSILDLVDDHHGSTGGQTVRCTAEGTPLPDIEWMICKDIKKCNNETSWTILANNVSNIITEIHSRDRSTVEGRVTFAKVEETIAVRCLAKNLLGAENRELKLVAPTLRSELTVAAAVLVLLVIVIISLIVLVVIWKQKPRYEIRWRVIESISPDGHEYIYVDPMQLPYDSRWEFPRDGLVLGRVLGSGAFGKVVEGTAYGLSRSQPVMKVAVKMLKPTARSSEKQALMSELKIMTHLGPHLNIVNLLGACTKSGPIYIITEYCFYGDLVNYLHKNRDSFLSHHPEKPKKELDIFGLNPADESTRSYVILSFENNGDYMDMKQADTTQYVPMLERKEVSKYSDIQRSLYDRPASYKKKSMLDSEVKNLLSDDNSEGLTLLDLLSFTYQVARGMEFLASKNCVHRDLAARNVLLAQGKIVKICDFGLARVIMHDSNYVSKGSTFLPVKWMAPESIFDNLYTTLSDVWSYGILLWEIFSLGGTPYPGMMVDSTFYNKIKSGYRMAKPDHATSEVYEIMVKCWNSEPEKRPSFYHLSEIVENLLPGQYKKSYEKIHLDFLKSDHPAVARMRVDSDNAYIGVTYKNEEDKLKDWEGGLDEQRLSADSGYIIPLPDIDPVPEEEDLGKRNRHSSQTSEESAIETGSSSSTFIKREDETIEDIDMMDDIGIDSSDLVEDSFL
Chain of Platelet-derived growth factor receptor alpha (P16234 whole entry): as the sequence (P16234 whole entry D842V) above, with V842D counted along it

**Q.** Which inhibition [1] does the source give for `Cc1[nH]c(/C=C2\C(=O)Nc3ccc(F)cc32)c(C)c1NC(=O)[C@H]1CCCN1.Cl` here?
**A.** Its inhibition is 27%.

**Q.** What about the inhibition [2] of the same compound?
**A.** The inhibition was 0%.

**Q.** And the IC50 (786-0)?
**A.** Its IC50 is 12.2 µM.

**Q.** And the IC50 [3]?
**A.** Its IC50 is 0.175 µM.

**Q.** And the IC50 (MV4-11 [4])?
**A.** Its IC50 is 0.0248 µM.

**Q.** What about the Activity (Mus musculus) of the same compound?
**A.** The Activity was “Non-Toxic”.

**Q.** And the IC50 (MDA-MB-231)?
**A.** Its IC50 is > 20 µM.

**Q.** And the inhibition [5]?
**A.** The inhibition was -7%.

**Q.** And the bioavailability [6]?
**A.** The bioavailability was 59%.

**Q.** And the IC50 (Kasumi 1)?
**A.** The IC50 was 0.251 µM.

**Q.** And the IC50 (Jurkat)?
**A.** The IC50 was 4.18 µM.

**Q.** What about the IC50 (Cytochrome P450 2C19) of the same compound?
**A.** Its IC50 is > 33 µM.

**Q.** What about the AUC(0-inf) [7] of the same compound?
**A.** Its AUC(0-inf) is 3070 ng·h/mL.

**Q.** And the inhibition in vivo at 5 mg/kg (MV4-11 [8])?
**A.** The inhibition in vivo at 5 mg/kg was 52.4%.

**Q.** And the IC50 [9]?
**A.** The IC50 was 0.0027 µM.

**Q.** And the inhibition [10]?
**A.** The inhibition was 95%.

**Q.** What about the IC50 (Cytochrome P450 2C8) of the same compound?
**A.** Its IC50 is > 33 µM.

**Q.** What about the inhibition in vivo at 80 mg/kg (MV4-11 [11]) of the same compound?
**A.** The inhibition in vivo at 80 mg/kg was 98.9%.

**Q.** What about the inhibition [12] of the same compound?
**A.** Its inhibition is 8%.

**Q.** What about the IC50 (NCI-H2228) of the same compound?
**A.** Its IC50 is 3.44 µM.

**Q.** What about the inhibition [13] of the same compound?
**A.** Its inhibition is 14%.

**Q.** What about the inhibition [14] of the same compound?
**A.** Its inhibition is 93%.

**Q.** And the inhibition [15]?
**A.** The inhibition was 2%.

**Q.** And the Cmax [16]?
**A.** Its Cmax is 709 ng/mL.

**Q.** And the IC50 (Cytochrome P450 2D6)?
**A.** The IC50 was > 33 µM.

**Q.** What about the inhibition in vivo at 10 mg/kg (MV4-11 [17]) of the same compound?
**A.** The inhibition in vivo at 10 mg/kg was 88.7%.

**Q.** What about the inhibition [18] of the same compound?
**A.** Its inhibition is 38%.

**Q.** What about the IC50 (MOLM-13) of the same compound?
**A.** The IC50 was 0.0236 µM.

**Q.** And the inhibition [19]?
**A.** Its inhibition is 21%.

**Q.** What about the inhibition [20] of the same compound?
**A.** The inhibition was 16%.

**Q.** And the IC50 (Cytochrome P450 2C9)?
**A.** The IC50 was > 33 µM.

**Q.** And the inhibition [21]?
**A.** The inhibition was 38%.

**Q.** And the inhibition in vivo at 40 mg/kg (MV4-11 [22])?
**A.** The inhibition in vivo at 40 mg/kg was 100%.

**Q.** What about the inhibition [23] of the same compound?
**A.** Its inhibition is 47%.
